# Key:
# CDC37-nanoKAZ = assay: Luminescence activity of CDC37-nanoKAZ in total cell lysates; type: cell-based; conditions: counter-test, same concentrations as interaction assay
# Method: The luminescence activity of the cell lysates was determined using a Centro LB 960 Microplate Luminometer (Berthold Technologies, Bad Wildbad, Germany). A reaction mixture containing bis-coelenterazine (final concentration of 0.1–1 μg/100 μL) in PBS containing 0.02% Tween20 and 20 mM EDTA was injected. The luminescence intensity was recorded at 0.1 s intervals for 10 s or 10 min. The maximum luminescence intensity (Imax), represented in relative luminescence units (rlu), was used in the study.
# Targeting the DYRK1A/CDC37 complex
# (a-d) Luminescence intensities of total cell lysates of cells treated with the indicated […]
# Figure 4. Luminescence intensities at each concentration are shown as fold-changes relative to that at 0 nM. Points are means ± SD (n = 3).
# (1 picture or pasted object on this page, not shown here)
# Luminescence intensities of total cell lysates of cells treated with the indicated concentrations of CaNDY, as also used in Figure 5c. Luminescence intensities at each concentration are shown as fold-changes to that at 0 nM. Points are means ± SD (n = 3).
# MAPKAPK3 = target: T1, MAPKAPK3 (Homo sapiens, UniProt Q16644); assay: Kinase panel, CaNDY 1 µM; type: biochemical; conditions: CaNDY 1 µM relative to DMSO
# T1 construct: purchased Carna Biosciences
# EGFR(d746-750/T790M) = target: T2, EGFR(d746-750/T790M) (Homo sapiens, UniProt P00533, DEL746-750/T790M); assay: Kinase panel, CaNDY 1 µM; type: biochemical; conditions: CaNDY 1 µM relative to DMSO
# T2 construct: purchased Carna Biosciences
# CaMK1δ = target: T3, CaMK1δ (Homo sapiens, UniProt Q8IU85); assay: Kinase panel, CaNDY 1 µM; type: biochemical; conditions: CaNDY 1 µM relative to DMSO
# T3 construct: purchased Carna Biosciences
# MAP2K7_Cascade = target: T4, MAP2K7_Cascade (Homo sapiens, UniProt O14733); assay: Kinase panel, CaNDY 1 µM; type: biochemical; conditions: CaNDY 1 µM relative to DMSO
# T4 construct: purchased Carna Biosciences
# PDHK2 = target: T5, PDHK2 (Homo sapiens, UniProt Q15119); assay: Kinase panel, CaNDY 1 µM; type: biochemical; conditions: CaNDY 1 µM relative to DMSO
# T5 construct: purchased Carna Biosciences
# CLK2 = target: T6, CLK2 (Homo sapiens, UniProt P49760); assay: Kinase panel, CaNDY 1 µM; type: biochemical
# T6 construct: purchased Carna Biosciences
# FGFR3 = target: T7, FGFR3 (Homo sapiens, UniProt P22607); assay: Kinase panel, CaNDY 1 µM; type: biochemical; conditions: CaNDY 1 µM relative to DMSO
# T7 construct: purchased Carna Biosciences
# RAF1_Cascade = target: T8, RAF1_Cascade (Homo sapiens, UniProt P04049); assay: Kinase panel, CaNDY 1 µM; type: biochemical; conditions: CaNDY 1 µM relative to DMSO
# T8 construct: purchased Carna Biosciences
# CLK1 = CLK1 (Homo sapiens, UniProt P49759); assay: Kinase panel, CaNDY 1 µM; type: biochemical; design: purchased Carna Biosciences
# Text: Detailed information on the assay conditions is available on the website of Carna Biosciences (http://www.carnabio.com/english/index.html; Kobe, Japan). In brief, full-length human recombinant kinases were expressed using a baculovirus expression system as amino-terminal GST-fusion proteins, and purified by glutathione-Sepharose chromatography. The GenBank accession numbers of DYRK1A, DYRK1B, DYRK2, and DYRK3 were NP_001387.2, NP_004705.1, NP_003574.1, and NP_003573.2. […] For each compound, a DMSO solution was diluted in assay buffer to yield a final concentration of 1% DMSO. After incubation for one hour at room temperature, substrate phosphorylation was analyzed by electrophoretic separation of the substrate and products using a Caliper LC3000 platform (Caliper Life Sciences, Mountain View, CA, USA). The phosphorylated product (P)/(P + substrate) ratio was calculated at each concentration of each small molecule and the percent inhibition was expressed relative to a control assay in the absence of the small molecule. […] The IC50 of each compound was calculated by interpolation on a log-concentration-response curve fitted with a four-parameter logistic equation.
# All kinase assays were carried out at Carna Biosciences. The inhibitory map was made with Kinome Render[36].
# Erk2 = target: T9, Erk2 (Homo sapiens, UniProt P28482); assay: Kinase panel, CaNDY 1 µM; type: biochemical; conditions: CaNDY 1 µM relative to DMSO
# T9 construct: purchased Carna Biosciences
# MAP3K2_Cascade = target: T10, MAP3K2_Cascade (Homo sapiens, UniProt Q9Y2U5); assay: Kinase panel, CaNDY 1 µM; type: biochemical; conditions: CaNDY 1 µM relative to DMSO
# T10 construct: purchased Carna Biosciences
# PIK3CA/PIK3R1 = target: T11, PIK3CA/PIK3R1 (Homo sapiens, UniProt P42336); assay: Kinase panel, CaNDY 1 µM; type: biochemical; conditions: CaNDY 1 µM relative to DMSO
# T11 construct: purchased Carna Biosciences
# PHKG2 = target: T12, PHKG2 (Homo sapiens, UniProt P15735); assay: Kinase panel, CaNDY 1 µM; type: biochemical; conditions: CaNDY 1 µM relative to DMSO
# T12 construct: purchased Carna Biosciences
# FGFR4 = target: T13, FGFR4 (Homo sapiens, UniProt P22455); assay: Kinase panel, CaNDY 1 µM; type: biochemical; conditions: CaNDY 1 µM relative to DMSO
# T13 construct: purchased Carna Biosciences
# TYK2 = target: T14, TYK2 (Homo sapiens, UniProt P29597); assay: Kinase panel, CaNDY 1 µM; type: biochemical; conditions: CaNDY 1 µM relative to DMSO
# T14 construct: purchased Carna Biosciences
# T14 sequence (P29597 whole entry): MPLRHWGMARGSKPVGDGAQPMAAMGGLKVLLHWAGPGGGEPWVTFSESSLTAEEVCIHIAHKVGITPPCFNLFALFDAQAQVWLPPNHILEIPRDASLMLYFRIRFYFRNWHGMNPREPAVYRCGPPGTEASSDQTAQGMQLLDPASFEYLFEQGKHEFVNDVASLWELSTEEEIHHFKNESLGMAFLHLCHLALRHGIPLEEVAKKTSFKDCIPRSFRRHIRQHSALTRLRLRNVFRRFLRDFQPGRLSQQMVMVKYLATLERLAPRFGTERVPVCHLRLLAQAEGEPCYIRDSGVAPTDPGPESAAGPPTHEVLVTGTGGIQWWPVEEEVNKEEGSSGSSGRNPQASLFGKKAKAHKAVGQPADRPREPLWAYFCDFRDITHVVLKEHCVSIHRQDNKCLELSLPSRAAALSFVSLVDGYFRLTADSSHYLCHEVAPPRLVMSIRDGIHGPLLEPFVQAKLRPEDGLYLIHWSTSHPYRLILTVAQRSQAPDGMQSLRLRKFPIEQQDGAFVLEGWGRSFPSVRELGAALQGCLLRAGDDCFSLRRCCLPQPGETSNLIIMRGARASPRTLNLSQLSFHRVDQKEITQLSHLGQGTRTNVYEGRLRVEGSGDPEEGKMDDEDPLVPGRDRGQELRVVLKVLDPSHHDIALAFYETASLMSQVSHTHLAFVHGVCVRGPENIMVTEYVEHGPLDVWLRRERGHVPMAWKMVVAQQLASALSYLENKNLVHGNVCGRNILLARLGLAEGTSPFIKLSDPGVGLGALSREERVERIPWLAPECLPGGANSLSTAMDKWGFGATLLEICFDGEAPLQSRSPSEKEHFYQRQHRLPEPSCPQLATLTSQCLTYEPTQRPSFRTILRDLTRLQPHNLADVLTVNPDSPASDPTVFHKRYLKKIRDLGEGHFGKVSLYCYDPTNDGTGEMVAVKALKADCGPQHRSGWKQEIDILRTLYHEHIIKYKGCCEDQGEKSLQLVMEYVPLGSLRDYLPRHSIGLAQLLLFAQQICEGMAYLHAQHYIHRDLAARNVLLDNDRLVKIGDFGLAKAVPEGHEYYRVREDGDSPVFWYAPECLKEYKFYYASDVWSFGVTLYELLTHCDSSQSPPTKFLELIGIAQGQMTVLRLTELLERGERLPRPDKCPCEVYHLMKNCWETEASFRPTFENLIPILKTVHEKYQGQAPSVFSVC
# Sequence of CLK1 (P49759 whole entry, the tested form may be a part): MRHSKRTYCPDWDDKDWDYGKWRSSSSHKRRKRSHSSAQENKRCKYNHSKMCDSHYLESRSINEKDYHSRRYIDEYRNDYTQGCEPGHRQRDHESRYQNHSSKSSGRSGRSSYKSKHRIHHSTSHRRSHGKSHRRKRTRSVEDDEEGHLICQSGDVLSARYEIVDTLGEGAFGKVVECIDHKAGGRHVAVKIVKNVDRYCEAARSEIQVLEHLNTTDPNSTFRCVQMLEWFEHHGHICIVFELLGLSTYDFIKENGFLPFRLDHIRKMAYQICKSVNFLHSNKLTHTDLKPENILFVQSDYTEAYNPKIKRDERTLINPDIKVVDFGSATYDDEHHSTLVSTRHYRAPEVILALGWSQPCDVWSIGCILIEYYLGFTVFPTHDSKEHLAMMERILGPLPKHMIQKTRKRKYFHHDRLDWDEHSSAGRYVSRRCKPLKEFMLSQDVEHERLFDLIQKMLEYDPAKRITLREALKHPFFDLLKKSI
# T6 sequence (P49760 whole entry): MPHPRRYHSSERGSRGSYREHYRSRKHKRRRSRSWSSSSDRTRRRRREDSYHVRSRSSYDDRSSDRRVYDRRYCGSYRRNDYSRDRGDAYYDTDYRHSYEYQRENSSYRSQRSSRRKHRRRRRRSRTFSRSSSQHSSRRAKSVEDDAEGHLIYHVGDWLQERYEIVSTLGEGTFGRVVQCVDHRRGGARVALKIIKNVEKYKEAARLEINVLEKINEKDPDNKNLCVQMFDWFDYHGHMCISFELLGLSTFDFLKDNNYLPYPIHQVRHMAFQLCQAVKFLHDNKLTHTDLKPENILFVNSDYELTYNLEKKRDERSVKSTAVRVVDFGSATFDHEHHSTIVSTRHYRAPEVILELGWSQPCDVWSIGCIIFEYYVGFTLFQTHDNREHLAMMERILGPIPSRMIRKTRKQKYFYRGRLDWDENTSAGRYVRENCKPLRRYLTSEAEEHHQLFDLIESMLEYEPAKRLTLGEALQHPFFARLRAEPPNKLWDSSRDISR
# T7 sequence (P22607 23-806): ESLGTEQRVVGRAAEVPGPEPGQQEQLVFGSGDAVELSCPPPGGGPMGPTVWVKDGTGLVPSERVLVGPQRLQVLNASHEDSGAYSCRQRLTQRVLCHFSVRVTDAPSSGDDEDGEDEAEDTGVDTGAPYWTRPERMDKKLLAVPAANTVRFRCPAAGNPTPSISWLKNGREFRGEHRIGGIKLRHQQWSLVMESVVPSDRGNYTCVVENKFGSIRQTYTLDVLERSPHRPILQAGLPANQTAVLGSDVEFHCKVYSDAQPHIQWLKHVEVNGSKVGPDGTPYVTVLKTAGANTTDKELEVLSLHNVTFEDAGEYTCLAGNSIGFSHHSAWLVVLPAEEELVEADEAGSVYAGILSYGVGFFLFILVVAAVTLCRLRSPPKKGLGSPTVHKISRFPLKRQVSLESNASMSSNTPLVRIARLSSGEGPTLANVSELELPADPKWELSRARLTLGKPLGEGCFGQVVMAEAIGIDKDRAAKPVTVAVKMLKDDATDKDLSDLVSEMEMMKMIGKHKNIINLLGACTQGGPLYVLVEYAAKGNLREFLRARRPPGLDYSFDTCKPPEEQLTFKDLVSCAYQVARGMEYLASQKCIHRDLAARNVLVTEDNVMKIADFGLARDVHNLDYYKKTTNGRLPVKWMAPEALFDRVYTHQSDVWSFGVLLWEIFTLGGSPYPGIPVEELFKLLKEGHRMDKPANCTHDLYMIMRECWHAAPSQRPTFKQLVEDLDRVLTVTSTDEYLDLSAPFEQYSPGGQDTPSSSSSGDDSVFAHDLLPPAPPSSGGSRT
# T1 sequence (Q16644 whole entry): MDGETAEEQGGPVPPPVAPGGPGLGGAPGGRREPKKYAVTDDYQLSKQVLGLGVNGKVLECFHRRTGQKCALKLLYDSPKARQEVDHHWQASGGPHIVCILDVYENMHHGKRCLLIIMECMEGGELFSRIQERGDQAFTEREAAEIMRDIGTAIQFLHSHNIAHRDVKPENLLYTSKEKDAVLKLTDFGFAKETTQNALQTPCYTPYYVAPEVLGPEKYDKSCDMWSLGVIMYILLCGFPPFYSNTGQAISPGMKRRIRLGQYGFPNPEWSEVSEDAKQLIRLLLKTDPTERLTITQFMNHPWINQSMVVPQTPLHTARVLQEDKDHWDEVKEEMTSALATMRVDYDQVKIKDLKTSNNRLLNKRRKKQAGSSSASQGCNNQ
# T10 sequence (Q9Y2U5 whole entry): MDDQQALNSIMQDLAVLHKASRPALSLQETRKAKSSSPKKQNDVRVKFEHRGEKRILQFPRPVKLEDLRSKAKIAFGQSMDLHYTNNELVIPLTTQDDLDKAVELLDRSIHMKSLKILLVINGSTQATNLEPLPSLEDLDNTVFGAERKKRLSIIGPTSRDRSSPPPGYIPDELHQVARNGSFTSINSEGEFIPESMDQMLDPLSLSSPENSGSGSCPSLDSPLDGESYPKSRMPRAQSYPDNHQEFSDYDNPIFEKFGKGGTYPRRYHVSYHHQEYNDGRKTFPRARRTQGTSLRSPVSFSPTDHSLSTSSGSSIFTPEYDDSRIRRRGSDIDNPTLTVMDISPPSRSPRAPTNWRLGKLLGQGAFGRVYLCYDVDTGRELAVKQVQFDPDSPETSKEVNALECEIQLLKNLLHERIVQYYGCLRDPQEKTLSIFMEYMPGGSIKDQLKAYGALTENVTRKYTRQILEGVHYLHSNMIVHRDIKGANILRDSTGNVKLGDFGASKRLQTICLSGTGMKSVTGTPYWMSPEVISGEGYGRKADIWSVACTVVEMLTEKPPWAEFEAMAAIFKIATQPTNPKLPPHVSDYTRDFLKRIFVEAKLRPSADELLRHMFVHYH
# T4 sequence (O14733 whole entry): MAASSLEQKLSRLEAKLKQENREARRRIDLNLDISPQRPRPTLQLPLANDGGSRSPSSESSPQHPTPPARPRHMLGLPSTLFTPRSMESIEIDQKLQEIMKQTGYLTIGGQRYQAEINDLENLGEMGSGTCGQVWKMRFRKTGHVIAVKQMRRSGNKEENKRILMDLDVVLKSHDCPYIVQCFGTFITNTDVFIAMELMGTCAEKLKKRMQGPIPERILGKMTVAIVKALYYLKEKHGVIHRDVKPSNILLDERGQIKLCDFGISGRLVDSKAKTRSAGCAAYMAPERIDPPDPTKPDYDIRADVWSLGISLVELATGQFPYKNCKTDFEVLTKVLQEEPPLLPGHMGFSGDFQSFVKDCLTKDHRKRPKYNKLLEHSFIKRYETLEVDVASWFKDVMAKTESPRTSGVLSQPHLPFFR
# T8 sequence (P04049 whole entry): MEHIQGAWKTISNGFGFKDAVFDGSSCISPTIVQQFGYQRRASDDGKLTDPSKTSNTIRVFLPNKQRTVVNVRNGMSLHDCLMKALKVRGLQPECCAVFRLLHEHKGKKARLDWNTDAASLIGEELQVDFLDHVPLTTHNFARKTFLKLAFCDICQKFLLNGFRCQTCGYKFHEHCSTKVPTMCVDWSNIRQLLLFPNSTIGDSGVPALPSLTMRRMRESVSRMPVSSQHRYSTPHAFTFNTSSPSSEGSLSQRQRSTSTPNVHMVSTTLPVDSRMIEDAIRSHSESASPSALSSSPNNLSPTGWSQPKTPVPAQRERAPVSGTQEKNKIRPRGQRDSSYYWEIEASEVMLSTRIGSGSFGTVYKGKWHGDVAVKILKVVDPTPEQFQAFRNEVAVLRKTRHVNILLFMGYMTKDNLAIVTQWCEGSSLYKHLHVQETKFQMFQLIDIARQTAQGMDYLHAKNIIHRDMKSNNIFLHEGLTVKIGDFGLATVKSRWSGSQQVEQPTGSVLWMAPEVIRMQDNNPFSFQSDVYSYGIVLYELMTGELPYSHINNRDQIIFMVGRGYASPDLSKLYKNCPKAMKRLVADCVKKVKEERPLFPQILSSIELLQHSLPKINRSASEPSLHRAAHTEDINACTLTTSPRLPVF
compound,measurement,setting,value
"[H]/N=C1/NC(=O)C(=Cc2ccc3c(c2)CCO3)S1 [CaNDY, (Z)-5-[(2,3-dihydrobenzofuran-5-yl)methylene]-2-iminothiazolidin-4-one]",inhibition of luminescence activity of CDC37-nanoKAZ,CDC37-nanoKAZ,did not inhibit
same,remaining activity at 1 µM,MAPKAPK3,103%
same,%Activity,EGFR(d746-750/T790M),101.0%
same,remaining activity at 1 µM,CaMK1δ,103%
same,%Activity,MAP2K7_Cascade,101.7%
same,remaining activity at 1 µM,PDHK2,91.6%
same,inhibition at 1 µM,"CLK2; 1 μM CaNDY, read-out: percentage inhibition",> 90%
same,%Activity,CLK2; CaNDY 1 µM relative to DMSO,9.0%
same,remaining activity at 1 µM,FGFR3,104%
same,remaining activity at 1 µM,RAF1_Cascade,82.3%
same,%Activity,"CLK1; CLK1, CaNDY 1 µM relative to DMSO",3.0%
same,inhibition at 1 µM,CLK1; read-out: percentage inhibition,> 90%
same,remaining activity at 1 µM,Erk2,97.6%
same,remaining activity at 1 µM,MAP3K2_Cascade,102%
same,remaining activity at 1 µM,PIK3CA/PIK3R1,38.5%
same,remaining activity at 1 µM,PHKG2,88%
same,remaining activity at 1 µM,FGFR4,107%
same,%Activity,TYK2,97.4%

# From paper PMC4522657, “Identification of a DYRK1A Inhibitor that Induces Degradation of the Target Kinase using Co-chaperone CDC37 fused with Luciferase nanoKAZ” (Scientific Reports, 2015)
